Assay results as given in article PMC11648681, “Development of machine learning models for the prediction of the skin sensitization potential of cosmetic compounds” (PeerJ, 2024).
Values joined by “and” are separate entries in the source; they are usually repeats but may differ in a detail not shown here. Equal entries are not always repeated. Where two headings read alike, the source gives them in different places.

Columns and labels:
THP-1 cells = experiment: CCK-8 cell viability of THP-1 cells after 48 h compound treatment in HaCaT/THP-1 co-culture; format: cell-based, human; conditions: 48 h; for final concentration used (highest concentration that maintained at least 80% cell viability): THP-1 cells, CCK-8, single (not double) concentration
Description: (§1) The co-culture system was set up according to the following described method. […] THP-1 cells were collected, centrifuged, and re-suspended in fresh RPMI-1640 medium supplemented with 10% FBS at 2 × 10^6 cells/mL. Then cells are distributed into HaCaT-seeded 96 wells plate with 80 μL (1.6 × 10^5 cells/well).
(§2) The compounds listed in Table 1 were dissolved in DMSO to create stock solutions with a concentration of 500 mg/mL. Eleven concentrations were subsequently prepared using two-fold serial dilutions. These stock solutions were then further diluted 250-fold in RPMI-1640 + 10% FBS medium. Finally, 80 μL of the prepared solutions were added 1:1 to the treated 96-well plates and incubated for 48 h at 37 °C and 5% CO2.
(§3) After 48 h of treatment, the treated cells were collected 100 μL cells per well. The supernatant medium was added 10 μL of CCK-8 (Life-iLab, Shanghai, China) solution to each well and incubated the plate in the incubator for 2–4 h. THP-1 cell viability was determined using standard calculation methods.
(§4) The cytotoxicity of 15 test compounds listed in Table 1 was assessed using THP-1 cells across a concentration range of 1,000 to 3.9 μg/mL. Cell viability was assessed after 48 h of treatment using the CCK-8 assay.

[1] = as above; format: cell-based, human; conditions: human
Description: as §1, §2, §3, §4

[2] = 0.976563 μg/mL, THP-1, individual replicate values
[3] = 1.95312 μg/mL, THP-1, individual replicate values
[4] = 3.90625 μg/mL, THP-1, individual replicate values
[5] = 7.8125 μg/mL, THP-1, individual replicate values
[6] = 15.625 μg/mL, THP-1, individual replicate values
[7] = 62.5 μg/mL, THP-1, individual replicate values
[8] = 125 μg/mL, THP-1, individual replicate values
[9] = 250 μg/mL, THP-1, individual replicate values
[10] = 500 μg/mL, THP-1, individual replicate values
[11] = 1000 μg/mL, THP-1, individual replicate values
[12] = THP-1 cells in co-culture with HaCaT cells, 48 h, THP-1, individual replicate values

## Sc1nc2ccccc2s1 [2-mercaptobenzothiazole]
THP-1 cells; [2]
  Cell viability: 93.5695%
THP-1 cells; [3]
  Cell viability: 85.722%
THP-1 cells; [4]
  Cell viability: 80.7937%
THP-1 cells; [5]
  Cell viability: 76.7668%
THP-1 cells; [6]
  Cell viability: 73.0224%
THP-1 cells; [7]
  Cell viability: 73.444%
THP-1 cells; [8]
  Cell viability: 34.9417%
THP-1 cells; [9]
  Cell viability: 27.3318%
THP-1 cells; [10]
  Cell viability: 20.0359%
THP-1 cells; [11]
  Cell viability: 12.1659%
THP-1 cells; human, 31.25 μg/mL
  Cell viability: 70.7399%
[1]; Cell viability
  viability at 48 h, 31.25 μg/mL: 63.3%
[1]; [12]
  viability at 48 h, 0.976563 μg/mL: 80.2%
  viability at 48 h, 1.95312 μg/mL: 76.6%
  viability at 48 h, 3.90625 μg/mL: 77.2%
  viability at 48 h, 7.8125 μg/mL: 65.9%
  viability at 48 h, 15.625 μg/mL: 63.3%
  viability at 48 h, 62.5 μg/mL: 61.4%
  viability at 48 h, 125 μg/mL: 34.2%
  viability at 48 h, 250 μg/mL: 24.8%
  viability at 48 h, 500 μg/mL: 20.8%
  viability at 48 h, 1000 μg/mL: 12.9%

## Oc1cccc(O)c1 [resorcinol, Resorcinol]
THP-1 cells; [2]
  Cell viability: 87.3677%
THP-1 cells; [3]
  Cell viability: 103.314% and 82.4843%
THP-1 cells; [4]
  Cell viability: 80.4798%
THP-1 cells; [5]
  Cell viability: 98.5964%
THP-1 cells; [6]
  Cell viability: 93.1569%
THP-1 cells; [7]
  Cell viability: 79.0942%
THP-1 cells; [8]
  Cell viability: 70.9013%
THP-1 cells; [9]
  Cell viability: 60.5067%
THP-1 cells; [10]
  Cell viability: 57.2511%
THP-1 cells; [11]
  Cell viability: 56.1435%
THP-1 cells; human, 31.25 μg/mL
  Cell viability: 84.1435%
[1]; Cell viability
  viability at 48 h, 31.25 μg/mL: 81.4%
[1]; [12]
  viability at 48 h, 0.976563 μg/mL: 86.4%
  viability at 48 h, 3.90625 μg/mL: 99.3%
  viability at 48 h, 7.8125 μg/mL: 95.8%
  viability at 48 h, 15.625 μg/mL: 86.8%
  viability at 48 h, 62.5 μg/mL: 68%
  viability at 48 h, 125 μg/mL: 66.2%
  viability at 48 h, 250 μg/mL: 59.3%
  viability at 48 h, 500 μg/mL: 56.3%
  viability at 48 h, 1000 μg/mL: 58.1%

## O=CCc1ccccc1 [phenylacetaldehyde, Phenylacetaldehyde]
THP-1 cells; [3]
  Cell viability: 84.3308%
THP-1 cells; [4]
  Cell viability: 77.9774%
THP-1 cells; [5]
  Cell viability: 74.6917%
THP-1 cells; [6]
  Cell viability: 73.3083%
THP-1 cells; 31.25 μg/mL, THP-1, individual replicate values
  Cell viability: 14.7368%
THP-1 cells; [7]
  Cell viability: 15.5263%
THP-1 cells; [8]
  Cell viability: 17.3609%
THP-1 cells; [9]
  Cell viability: 19.4737%
THP-1 cells; [10]
  Cell viability: 22.2782%
THP-1 cells; [11]
  Cell viability: 20.8421%
THP-1 cells
  final concentration used (highest concentration that maintained at least 80% cell viability): 7.8 µg/mL
[1]; [12]
  viability at 48 h, 0.976563 μg/mL: 84.7%
  viability at 48 h, 1.95312 μg/mL: 85.6%
  viability at 48 h, 3.90625 μg/mL: 84.7%
  viability at 48 h, 7.8125 μg/mL: 80.6%
  viability at 48 h, 15.625 μg/mL: 74.2%
  viability at 48 h, 62.5 μg/mL: 15.8%
  viability at 48 h, 125 μg/mL: 17%
  viability at 48 h, 250 μg/mL: 19.5%
  viability at 48 h, 500 μg/mL: 21.5%
  viability at 48 h, 1000 μg/mL: 18.6%
[1]; THP-1 cells in co-culture with HaCaT cells, 31.25 μg/mL, 48 h, THP-1, individual replicate values, read-out: Cell viability
  viability at 48 h, 31.25 μg/mL: 14.8%

## CC(C)(C)c1cc(O)ccc1O [THBQ, Tert-butylhydroquinone]
THP-1 cells; [2]
  Cell viability: 94.8298%
THP-1 cells; [3]
  Cell viability: 95.9362%
THP-1 cells; [4]
  Cell viability: 101.759%
THP-1 cells; [5]
  Cell viability: 103.546%
THP-1 cells; [6]
  Cell viability: 101.22%
THP-1 cells; [7]
  Cell viability: 47.234%
THP-1 cells; [8]
  Cell viability: 34.2837%
THP-1 cells; [9]
  Cell viability: 20.1277%
THP-1 cells; [10]
  Cell viability: 18.8014%
THP-1 cells; [11]
  Cell viability: 15.3191%
THP-1 cells
  final concentration used (highest concentration that maintained at least 80% cell viability): 31.25 µg/mL
THP-1 cells; human, 31.25 μg/mL
  Cell viability: 104.716%
[1]; Cell viability
  viability at 48 h, 31.25 μg/mL: 103%
[1]; [12]
  viability at 48 h, 0.976563 μg/mL: 95.9%
  viability at 48 h, 1.95312 μg/mL: 94.8%
  viability at 48 h, 3.90625 μg/mL: 97.4%
  viability at 48 h, 7.8125 μg/mL: 117%
  viability at 48 h, 15.625 μg/mL: 104%
  viability at 48 h, 62.5 μg/mL: 47.1%
  viability at 48 h, 125 μg/mL: 29.9%
  viability at 48 h, 250 μg/mL: 26.6%
  viability at 48 h, 500 μg/mL: 18.8%
  viability at 48 h, 1000 μg/mL: 15.2%
